# Results from patent publication US20230150970A1, “AMINOPYRIMIDINE DERIVATIVES AND THEIR USE AS ARYL HYDROCARBON RECEPTOR MODULATORS” (DONG-A ST CO., LTD., priority 2020, published 2023).
# Target: T1, AhR (Homo sapiens, UniProt P35869)
# T1 sequence (P35869 11-848): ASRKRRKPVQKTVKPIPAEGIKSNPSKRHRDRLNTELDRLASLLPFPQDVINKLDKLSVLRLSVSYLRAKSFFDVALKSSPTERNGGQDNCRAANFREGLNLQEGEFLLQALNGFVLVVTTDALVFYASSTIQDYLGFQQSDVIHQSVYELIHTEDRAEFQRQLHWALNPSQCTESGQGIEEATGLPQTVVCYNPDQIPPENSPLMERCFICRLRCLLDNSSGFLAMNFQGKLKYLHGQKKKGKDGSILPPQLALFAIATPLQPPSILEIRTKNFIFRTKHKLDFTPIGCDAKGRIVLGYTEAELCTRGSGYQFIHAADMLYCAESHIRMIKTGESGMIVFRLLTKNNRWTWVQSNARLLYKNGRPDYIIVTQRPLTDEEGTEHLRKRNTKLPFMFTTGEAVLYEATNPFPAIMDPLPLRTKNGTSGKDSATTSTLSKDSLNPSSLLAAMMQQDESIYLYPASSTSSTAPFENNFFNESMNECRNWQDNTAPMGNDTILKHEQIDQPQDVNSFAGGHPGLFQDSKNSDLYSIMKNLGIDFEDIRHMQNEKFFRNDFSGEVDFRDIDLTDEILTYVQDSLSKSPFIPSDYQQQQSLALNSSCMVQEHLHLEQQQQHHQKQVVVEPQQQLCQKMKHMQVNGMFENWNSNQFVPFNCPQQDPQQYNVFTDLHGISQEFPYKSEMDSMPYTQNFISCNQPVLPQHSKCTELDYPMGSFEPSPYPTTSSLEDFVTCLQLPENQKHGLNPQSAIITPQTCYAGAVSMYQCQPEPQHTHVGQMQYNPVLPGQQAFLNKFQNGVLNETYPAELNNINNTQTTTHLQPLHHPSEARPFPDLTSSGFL
# Assay: In Vitro Assay 1: XRE-luciferase reporter assay, antagonism in human cell line (HepG2)
# Conditions: Assay 1: AhR-Luc Human Antagonism (IC50, nM), unmarked values: kynurenine 200 μM, 6 hours
compound,measurement,value
"O[C@H]1CCN(c2cc(-c3ccc(Cl)cc3)nc(-c3cnoc3)n2)C1 [Example 336, (S)-1-(6-(4-chlorophenyl)-2-(isoxazol-4-yl)pyrimidin-4-yl)pyrrolidin-3-ol]",IC50,100 to 1000 nM
"CS(=O)(=O)C1(CO)CCN(c2cc(-c3ccc(Cl)cc3)nc(-c3cccnc3)n2)CC1 [Example 337, (1-(6-(4-chlorophenyl)-2-(pyridin-3-yl)pyrimidin-4-yl)-4-(methylsulfonyl)piperidin-4-yl)methanol]",IC50,< 10 nM
"OC1CCCCN(c2cc(-c3ccc(Cl)cc3)nc(-c3cccnc3)n2)C1 (stereo not drawn) [Example 338, 1-(6-(4-chlorophenyl)-2-(pyridin-3-yl)pyrimidin-4-yl)azepan-3-ol]",IC50,100 to 1000 nM
"O[C@H]1CCN(c2cc(-c3ccc(C(F)(F)F)cc3)nc(-c3cccnc3)n2)C1 [Example 340, (S)-1-(2-(pyridin-3-yl)-6-(4-(trifluoromethyl)phenyl)pyrimidin-4-yl)pyrrolidin-3-ol]",IC50,< 10 nM
"CS(=O)(=O)N1CCN(c2cc(-c3ccc(C(F)(F)F)cc3)nc(-c3cccnc3)n2)CC1 [Example 341, 4-(4-(methylsulfonyl)piperazin-1-yl)-2-(pyridin-3-yl)-6-(4-(trifluoromethyl)phenyl)pyrimidine]",IC50,> 1000 nM
"O[C@H]1CCN(c2cc(-c3ccc(Cl)cc3)nc(-c3cnc(F)c(F)c3)n2)C1 [Example 342, (S)-1-(6-(4-chlorophenyl)-2-(5,6-difluoropyridin-3-yl)pyrimidin-4-yl)pyrrolidin-3-ol]",IC50,> 1000 nM
"O[C@@H]1CN(c2cc(-c3ccc(C(F)(F)F)cc3)nc(-c3cccnc3)n2)C[C@@H]1O [Example 343, (3S,4R)-1-(2-(pyridin-3-yl)-6-(4-(trifluoromethyl)phenyl)pyrimidin-4-yl)pyrrolidine-3,4-diol]",IC50,> 1000 nM
"O[C@H]1CCN(c2cc(-c3ccc(Cl)cc3)nc(-c3cncnc3)n2)C1 [Example 344, (S)-1-(6-(4-chlorophenyl)-[2,5′-bipyrimidin]-4-yl)pyrrolidin-3-ol]",IC50,< 10 nM
"O[C@H]1CCN(c2cc(-c3ccc(Cl)cc3)nc(-c3ccc(F)nc3)n2)C1 [Example 345, (S)-1-(6-(4-chlorophenyl)-2-(6-fluoropyridin-3-yl)pyrimidin-4-yl)pyrrolidin-3-ol]",IC50,100 to 1000 nM
"O[C@H]1CCN(c2cc(-c3ccc(Cl)cc3)nc(-c3cccnc3F)n2)C1 [Example 346, (S)-1-(6-(4-chlorophenyl)-2-(2-fluoropyridin-3-yl)pyrimidin-4-yl)pyrrolidin-3-ol]",IC50,10 to 100 nM
"O[C@H]1CCN(c2cc(-c3ccc(Cl)cc3)nc(-c3ccccn3)n2)C1 [Example 347, (S)-1-(6-(4-chlorophenyl)-2-(pyridin-2-yl)pyrimidin-4-yl)pyrrolidin-3-ol]",IC50,> 1000 nM
"Cn1cc(-c2nc(-c3ccc(Cl)cc3)cc(N3CCN(S(=O)(=O)CCO)CC3)n2)cn1 [Example 348, 2-((4-(6-(4-chlorophenyl)-2-(1-methyl-1H-pyrazol-4-yl)pyrimidin-4-yl)piperazin-1-yl)sulfonyl)ethanol]",IC50,10 to 100 nM
"O[C@H]1CCN(c2cc(-c3ccc(C(F)(F)F)cc3)nc(-c3cnsc3)n2)C1 [Example 350, (S)-1-(2-(isothiazol-4-yl)-6-(4-(trifluoromethyl)phenyl)pyrimidin-4-yl)pyrrolidin-3-ol]",IC50,< 10 nM
"CS(=O)(=O)C1(CO)CCN(c2cc(-c3ccc(C(F)(F)F)cc3)nc(-c3cccnc3)n2)CC1 [Example 351, (4-(methylsulfonyl)-1-(2-(pyridin-3-yl)-6-(4-(trifluoromethyl)phenyl)pyrimidin-4-yl)piperidin-4-yl)methanol]",IC50,> 1000 nM
"Cn1cc(-c2nc(-c3ccc(C(F)(F)F)cc3)cc(N3CCN(S(=O)(=O)CCO)CC3)n2)cn1 [Example 353, 2-((4-(2-(1-methyl-1H-pyrazol-4-yl)-6-(4-(trifluoromethyl)phenyl)pyrimidin-4-yl)piperazin-1-yl)sulfonyl)ethanol]",IC50,10 to 100 nM
"CN(C)C1CN(c2cc(-c3ccc(Cl)cc3)nc(-c3cccnc3)n2)CCC1O (stereo not drawn) [Example 354, 1-(6-(4-chlorophenyl)-2-(pyridin-3-yl)pyrimidin-4-yl)-3-(dimethylamino)piperidin-4-ol]",IC50,> 1000 nM
"CN(C)C1CC(O)CN(c2cc(-c3ccc(Cl)cc3)nc(-c3cccnc3)n2)C1 (stereo not drawn) [Example 355, 1-(6-(4-chlorophenyl)-2-(pyridin-3-yl)pyrimidin-4-yl)-5-(dimethylamino)piperidin-3-ol]",IC50,100 to 1000 nM
"Cn1cc(-c2nc(-c3ccc(Cl)cc3)cc(N3CCC(CO)(S(C)(=O)=O)CC3)n2)cn1 [Example 356, (1-(6-(4-chlorophenyl)-2-(1-methyl-1H-pyrazol-4-yl)pyrimidin-4-yl)-4-(methylsulfonyl)piperidin-4-yl)methanol]",IC50,10 to 100 nM
"Cn1cc(-c2nc(-c3ccc(C(F)(F)F)cc3)cc(N3CCC(CO)(S(C)(=O)=O)CC3)n2)cn1 [Example 357, (1-(2-(1-methyl-1H-pyrazol-4-yl)-6-(4-(trifluoromethyl)phenyl)pyrimidin-4-yl)-4-(methylsulfonyl)piperidin-4-yl)methanol]",IC50,< 10 nM
"CN(C)C1CN(c2cc(-c3ccc(Cl)cc3)nc(-c3cccnc3)n2)CCC1CO (stereo not drawn) [Example 358, (1-(6-(4-chlorophenyl)-2-(pyridin-3-yl)pyrimidin-4-yl)-3-(dimethylamino)piperidin-4-yl)methanol]",IC50,100 to 1000 nM
"CC1CN(S(=O)(=O)CCO)CCN1c1cc(-c2ccc(Cl)cc2)nc(-c2cccnc2)n1 (stereo not drawn) [Example 359, 2-((4-(6-(4-chlorophenyl)-2-(pyridin-3-yl)pyrimidin-4-yl)-3-methylpiperazin-1-yl)sulfonyl)ethan-1-ol]",IC50,10 to 100 nM
"OCCNC1CCN(c2cc(-c3ccc(Cl)cc3)nc(-c3cccnc3)n2)CC1 [Example 360, 2-((1-(6-(4-chlorophenyl)-2-(pyridin-3-yl)pyrimidin-4-yl)piperidin-4-yl)amino)ethanol]",IC50,> 1000 nM
"O=S(=O)(CCCO)N1CCN(c2cc(-c3ccc(Cl)cc3)nc(-c3cccnc3)n2)CC1 [Example 362, 3-((4-(6-(4-chlorophenyl)-2-(pyridin-3-yl)pyrimidin-4-yl)piperazin-1-yl)sulfonyl)propan-1-ol]",IC50,< 10 nM
"O=C(CC(O)CO)N1CCN(c2cc(-c3ccc(Cl)cc3)nc(-c3cccnc3)n2)CC1 (stereo not drawn) [Example 363, 1-(4-(6-(4-chlorophenyl)-2-(pyridin-3-yl)pyrimidin-4-yl)piperazin-1-yl)-3,4-dihydroxybutan-1-one]",IC50,< 10 nM
"CC(O)C(O)C(=O)N1CCN(c2cc(-c3ccc(Cl)cc3)nc(-c3cccnc3)n2)CC1 (stereo not drawn) [Example 364, 1-(4-(6-(4-chlorophenyl)-2-(pyridin-3-yl)pyrimidin-4-yl)piperazin-1-yl)-2,3-dihydroxybutan-1-one]",IC50,< 10 nM
"CC1CN(c2cc(-c3ccc(Cl)cc3)nc(-c3cccnc3)n2)CC(=O)N1 (stereo not drawn) [Example 365, 4-(6-(4-chlorophenyl)-2-(pyridin-3-yl)pyrimidin-4-yl)-6-methylpiperazin-2-one]",IC50,100 to 1000 nM
"O=C1COCCN1c1ccc(-c2cc(N3CC[C@H](O)C3)nc(-c3cccnc3)n2)cc1 [Example 367, (S)-4-(4-(6-(3-hydroxypyrrolidin-1-yl)-2-(pyridin-3-yl)pyrimidin-4-yl)phenyl)morpholin-3-one]",IC50,> 1000 nM
"O=S(=O)(CCO)N1CCN(c2cc(-c3ccc(Cl)cc3)nc(-c3cnsc3)n2)CC1 [Example 368, 2-((4-(6-(4-chlorophenyl)-2-(isothiazol-4-yl)pyrimidin-4-yl)piperazin-1-yl)sulfonyl)ethanol]",IC50,10 to 100 nM
"O=S(=O)(CC(O)CO)N1CCN(c2cc(-c3ccc(Cl)cc3)nc(-c3cccnc3)n2)CC1 (stereo not drawn) [Example 369, 3-((4-(6-(4-chlorophenyl)-2-(pyridin-3-yl)pyrimidin-4-yl)piperazin-1-yl)sulfonyl)propane-1,2-diol]",IC50,10 to 100 nM
"O=S(=O)(CCO)N1CCN(c2cc(-c3ccc(C(F)(F)F)cc3)nc(-c3cnsc3)n2)CC1 [Example 370, 2-((4-(2-(isothiazol-4-yl)-6-(4-(trifluoromethyl)phenyl)pyrimidin-4-yl)piperazin-1-yl)sulfonyl)ethanol]",IC50,10 to 100 nM
"OCC[C@H]1CN(c2cc(-c3ccc(Cl)cc3)nc(-c3cccnc3)n2)CCN1 [Example 371, (S)-2-(4-(6-(4-chlorophenyl)-2-(pyridin-3-yl)pyrimidin-4-yl)piperazin-2-yl)ethanol]",IC50,100 to 1000 nM
"O=C1COCCN1c1ccc(-c2cc(N3CC[C@H](O)C3)nc(-c3cccnc3)n2)cn1 [Example 372, (S)-4-(5-(6-(3-hydroxypyrrolidin-1-yl)-2-(pyridin-3-yl)pyrimidin-4-yl)pyridin-2-yl)morpholin-3-one]",IC50,100 to 1000 nM
"Oc1ncccc1-c1nc(-c2ccc(N3CCOCC3)c(F)c2)cc(N2CC[C@H](O)C2)n1 [Example 373, (S)-3-(4-(3-fluoro-4-morpholinophenyl)-6-(3-hydroxypyrrolidin-1-yl)pyrimidin-2-yl)pyridin-2-ol]",IC50,10 to 100 nM
